Entries after “also recorded” stand apart in the source; their conditions may differ. Where two headings read alike, the source gives them in different places. Blank lines part the entries; values can stand above or below the compound they belong to.
Experiments:
ER- MDA-MB-231 cells = assay: MTT cell viability / proliferation assay, MDA-MB-231; type: cell-based
Description: (§1) IC50 and IC25 values for inhibitors is calculated from the linear regression line of the plot of percentage inhibition versus log inhibitor concentration. These IC50 values is used for combination or sequencing studies. The effect of combination or sequence of treatment is determined at IC25 of each agent.
(§2) For a cell proliferation assay, 10^4 cells were plated in a 96 well plate and treated with indicated drugs for 6 days. The medium was replaced after 3 days. On day 7, 500 μg/ml of MTT solution was added to each well and cells incubated for 3 hours. The tetrazolium dye trapped inside the mitochondria of the cells was dissolved in DMSO and the absorbance was measured at 560 nm.

aromatase [1] = assay: Radiometric 3H2O release assay for aromatase activity in MDA-MB-231 cells; type: cell-based; design: aromatase activity: dose or concentration left out as unconfirmed; conditions: for aromatase activity after pre-treatment: MDA-MB-231 cells
Description: The aromatase activity assay was described by Yue et al. (1997). The expression and activation of aromatase was seen after treatment with HDACi. […] This up-regulation of aromatase activity was dose dependent.
150,000 cells were plated in IMEM without PR with 5% steroid free serum, 1% penicillin-streptomycin and 750 μg/ml G418. Next day the cells were incubated with 0.5 μCi of [1β^3H] androstenedione (Specific activity 23.5 Ci/mmole) in 1 ml of media containing 1% charcoal stripped serum for 18 hours. The medium was then collected and treated with TCA (trichloroacetic acid) to precipitate proteins. The residual steroids in the medium were extracted and removed with chloroform and further treated with a 2.5% charcoal suspension. The ^3H2O in the supernatant was measured using a scintillation counter. In this assay ^3H2O is released during conversion of [1β^3H] Δ4A to estrone, catalyzed by the enzyme aromatase. For pre-treatment studies, cells were plated as described above and then next day pre-treated with indicated agent for 24 hours before incubating with [1β^3H] Δ4A for 18 hours. The activity of the enzyme is corrected for protein concentration in the cells plated and treated.

SKBr3 = assay: MTT cell proliferation assay, SKBr3; type: cell-based; conditions: Her-2 status ++++, read-out: IC50 values for inhibition of ER-cell proliferation, SKBr3
Description: as §1, §2

Hs 578T = assay: MTT cell proliferation assay, Hs 578T; type: cell-based; conditions: Her-2 status +, read-out: IC50 values for inhibition of ER-cell proliferation, Hs 578T
Description: as §1, with “MTT assay was performed to measure viability of breast cancer cells after treatment with various test compounds (Sabnis et al. 2005). IC50 and” for “IC50 and”
as §2, with “Exemplary ER negative cell lines (MDA-MB-231) were used. For” for “For”

aromatase (CYP19) = assay: Western immunoblotting for aromatase protein expression in MDA-MB-231 cells; type: cell-based; conditions: 24 hour treatment
Text: (§3) Expression of ER and Aromatase proteins was examined by Western blotting. β-actin was used as a loading control.

ERα = assay: Western immunoblotting for ERα protein expression in MDA-MB-231 cells; type: cell-based; conditions: 10 nM
Text: Protein expression of other ER inducible genes such as c-Myc and PgR can also be examined.
as §3

MDA-MB-231 xenografts = MDA-MB-231 xenografts in female ovariectomized nude mice; type: in vivo
Description: The tumors of MDA-MB-231 cells were grown in female ovariectomized nude mice. Sub-confluent cells were collected into Citric Saline, centrifuged and resuspended in Matrigel (10 mg/mL) at ˜2.5×10^7 cells/mL. Each mouse received subcutaneous inoculations in two sites per flank with 100 μL of cell suspension. Mice were then injected subcutaneously daily with 0.3% HPC in 0.9% NaCl (vehicle) until the tumors reached a measurable size (˜150 mm^3). At this point the mice were grouped such that the starting tumor volumes were not statistically different across the groups. The mice were injected with indicated agents (5× weekly) for indicated time. The tumors were measured weekly with calipers and the tumor volumes were calculated using the formula (4/3)πr1^2r2(r1≦r2).

[2] = test system: ERα, aromatase and androgen receptor; assay: Western blotting of xenograft tumors; type: in vivo, mice; conditions: MDA-MB-231 xenograft tumors
Description: (§4) Expression of ER and aromatase proteins was examined by Western blotting. β-actin was used as a loading control. The radiometric ^3H2O release assay for aromatase activity was performed as follows: the tumors were homogenized using ice-cold DPBS and the homogenate was used for the aromatase assay. ^3H2O release assay was performed using [1β^3H] androstenedione (Specific activity 23.5 Ci/mmole). The activity of the enzyme is corrected for protein concentration in the tumor homogenates.

aromatase [3] = assay: 3H2O release assay for aromatase activity in tumor homogenates; type: in vivo, mice; conditions: MDA-MB-231 xenograft tumors
Description: as §4

[4] = Homo sapiens, MDA-MB-231, Her-2 status −, read-out: IC50 values for inhibition of ER-cell proliferation, MDA-MB-231

Compound: CC(C)(C#N)c1cc(Cn2cncn2)cc(C(C)(C)C#N)c1 [anastrozole]
growth inhibitory effect (ER- MDA-MB-231 cells; MDA-MB-231 cells, single agent): refractory

Compound: CC/C(=C(\c1ccccc1)c1ccc(OCCN(C)C)cc1)c1ccccc1 [tamoxifen]
growth inhibitory effect (ER- MDA-MB-231 cells; MDA-MB-231 cells, single agent): refractory

IC50 (SKBr3; Homo sapiens, SK-BR-3): 17.2 µM
IC50 (ER- MDA-MB-231 cells; [4]): 20300 µM
IC50 (ER- MDA-MB-231 cells; Homo sapiens, MDA-MB-231, MDA-MB-231 cells, single agent, read-out: IC50, inhibition of cell growth): 20300 µM
Compound: CCCC(=O)O [BA, butyric acid]
aromatase activity after pre-treatment (aromatase [1]): upregulated
IC50 (Hs 578T; Homo sapiens, Hs-578T): 67900 µM
expression of aromatase up-regulated (aromatase (CYP19); 1 μM): 1.2 fold
growth inhibitory effect (ER- MDA-MB-231 cells; MDA-MB-231 cells, single agent): inhibited

IC50 (ER- MDA-MB-231 cells; Homo sapiens, MDA-MB-231, MDA-MB-231 cells, combined with MS-275 (0.1 nM), read-out: IC50 of letrozole for cell growth inhibition): 0.0154 µM
IC50 (ER- MDA-MB-231 cells; Homo sapiens, MDA-MB-231, MDA-MB-231 cells, combined with SAHA, read-out: IC50 of letrozole for cell growth inhibition): 1.13 µM
Compound: N#Cc1ccc(C(c2ccc(C#N)cc2)n2cncn2)cc1 [letrozole]
cell growth inhibition in combination (ER- MDA-MB-231 cells; MDA-MB-231 cells, letrozole combined with MS-275 (0.1 nM)): synergistically inhibit cell growth in a dose dependent manner
cell growth inhibition in combination (ER- MDA-MB-231 cells; MDA-MB-231 cells, letrozole combined with SAHA): synergistically inhibit cell growth in a dose dependent manner
growth inhibitory effect (ER- MDA-MB-231 cells; MDA-MB-231 cells, single agent): refractory; also recorded: did not inhibit growth

Compound: C[C@]12CC[C@@H]3c4ccc(O)cc4C[C@@H](CCCCCCCCC[S+]([O-])CCCC(F)(F)C(F)(F)F)[C@H]3[C@@H]1CC[C@@H]2O (stereo partly drawn) [fulvestrant]
growth inhibitory effect (ER- MDA-MB-231 cells; MDA-MB-231 cells, single agent): refractory

Compound: C=C1C[C@@H]2[C@H](CC[C@]3(C)C(=O)CC[C@@H]23)[C@@]2(C)C=CC(=O)C=C12 [exemestane]
growth inhibitory effect (ER- MDA-MB-231 cells; MDA-MB-231 cells, single agent): refractory

IC50 (SKBr3; Homo sapiens, SK-BR-3): 8.52 µM
IC50 (ER- MDA-MB-231 cells; [4]): 97.8 µM
Compound: CC(=O)Nc1ccc(C(=O)Nc2ccccc2N)cc1 [CJ-994, 4-acetylamino-N-(2′-aminophenyl)-benzamide]
IC50 (Hs 578T; Homo sapiens, Hs-578T): 0.122 µM

Compound: O=C(CCCCCCC(=O)Nc1ccccc1)NO [SAHA, N′-hydroxy-N-phenyl-octanediamide]
aromatase activity after pre-treatment (aromatase [1]): upregulated
protein expression of ERα up-regulated (ERα): 9.9 fold
IC50 (Hs 578T; Homo sapiens, Hs-578T): 0.0169 µM
expression of aromatase up-regulated (aromatase (CYP19); 10 nM): 1.77 fold

IC50 (SKBr3): 6.82e-05 µM
IC50 (ER- MDA-MB-231 cells; MDA-MB-231 cells, single agent, read-out: IC50, growth inhibition): 0.0817 µM
Compound: N-(2-aminophenyl)-4-(N-(pyridin-3-ylmethoxycarbonyl)aminomethyl) benzamide [MS-275]
growth of MDA-MB-231 xenografts (MDA-MB-231 xenografts; 5x weekly dosing): inhibits growth of MDA-MB-231 xenografts
effectiveness by route of administration (MDA-MB-231 xenografts; oral versus other route): more effective when given orally
uterine weight (MDA-MB-231 xenografts; ovariectomized mice, bioassay for estrogenic/antiestrogenic effects): does not affect the uterine weight
aromatase activity after pre-treatment (aromatase [1]): upregulated
aromatase activity (aromatase [1]; then 1β-3H-androstenedione 18 hours, basal 3.02): 15.193 pmoles/μg of protein/hour
protein expression of ERα up-regulated (ERα): 8 fold
IC50 (Hs 578T): 0.0281 µM
expression of aromatase up-regulated (aromatase (CYP19); 10 nM): 2.6 fold
expression of ERα, aromatase and androgen receptor in tumors [2]: upregulates
growth inhibitory effect (ER- MDA-MB-231 cells; MDA-MB-231 cells, single agent): significantly inhibited
intra-tumoral aromatase activity (aromatase [3]): upregulates intra-tumoral aromatase activity
